Data published in US12692253B2, “Antimicrobial compounds and methods” (Curza Global, LLC, priority 2019, dated 2026).
Read-outs that look alike come from different tables or passages of the source.

Key:
[1] = test system: E. coli (Ec); assay: Broth microdilution minimum inhibitory concentration (MIC), CLSI; assay type: cell-based; conditions: for MIC: Escherichia coli, read-out: E. coli + bicarb MIC
Method in brief: (§1)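 Bacteria grown at 35±2 °C to 0.5 McFarland turbidity were added at 5×10^4 CFU/well to triplicate two-fold compound series (8 dilutions). Media were cation-adjusted Mueller-Hinton broth alone or with sodium bicarbonate (6.25 or 25 mM final) or heat-inactivated human serum (0–50%), per modified CLSI method.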

[2] = test system: S. aureus (Sa); assay: as above; assay type: cell-based; conditions: for MIC: Staphylococcus aureus, read-out: Sa + bicarb MIC
Method in brief: as §1

[3] = test system: P. aeruginosa (Pa); assay: as above; assay type: cell-based; conditions: for MIC: Pseudomonas aeruginosa, read-out: Pa MIC + bicarb
Method in brief: as §1

[4] = test system: A. baumannn (Ab); assay: as above; assay type: cell-based; conditions: for MIC: read-out: Ab + bicarb MIC
Method in brief: as §1

[5] = test system: E. faecalis (Ef); assay: as above; assay type: cell-based; conditions: for MIC: Enterococcus faecalis, read-out: Ef + bicarb MIC
Method in brief: as §1

[6] = target: Rabbit Reticulocyte Lysate (eukaryotic protein synthesis); assay: Rabbit reticulocyte lysate luciferase assay (inhibition of eukaryotic protein synthesis); assay type: biochemical; conditions: read-out: Rabbit reticulocyte IC50 (μM/% inhib.)
Method in brief: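 Percent inhibition calculated against water-only controls from luminescence; background set by lysate lacking RNA. Compounds, 8-point 2-fold titration, incubated 90 minutes at 30° C with nuclease-treated rabbit reticulocyte lysate programmed with luciferase control RNA plus complete amino acids.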

[7] = test system: E. coli S30 extract (bacterial protein synthesis); assay: E. coli S30 extract coupled transcription-translation luciferase assay (inhibition of bacterial protein synthesis); assay type: biochemical; conditions: read-out: S30 IC50 (μM/% inhib.)
Method in brief: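 Luciferase luminescence quantified inhibition of protein synthesis relative to water controls, with no-DNA reactions giving background. Compounds in 2-fold serial dilution (8 levels) were incubated 1 hour at 37 °C with E. coli S30 extract, amino acids and pBESTluc plasmid, then chilled to stop.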

[8] = growth medium with sodium bicarbonate
[9] = A. baumannn, growth medium with sodium bicarbonate
[10] = growth medium supplemented with sodium bicarbonate
[11] = class by IC50 or % inhibition @ 1 μM

SMILES | MIC [1, 8] [µg/mL] | MIC [2, 8] [µg/mL] | MIC [3, 8] [µg/mL] | MIC [4, 9] [µg/mL] | MIC [5, 8] [µg/mL] | IC50 ([6]; % inhibition @ 1 μM) [µM] | IC50 ([7]; % inhibition @ 1 μM) [µM] | MIC [1, 10] [µg/mL] | MIC [2, 10] [µg/mL] | MIC [3, 10] [µg/mL] | MIC ([4]; Acinetobacter baumannii) [µg/mL] | MIC [5, 10] [µg/mL] | IC50 [6, 11] [µM] | IC50 [7, 11] [µM] | further results
CC(C)(N)C(=O)N1CCN(C(=O)Nc2ccn(-c3ccc(CNC45CC(N)(C4)C5)cc3)c(=O)n2)CC1 [Compound 171] | 8 to 32 | > 32 | > 32 | > 32 | > 32 | ≥ 1 | ≥ 1 | – | – | – | – | – | – | – | –
C[C@@](N)(CO)C(=O)N1CCN(C(=O)Nc2ccn(-c3ccc(CN4C[C@@H]5[C@@H](N)[C@@H]5C4)cc3)c(=O)n2)CC1 [Compound 40] | – | – | – | – | – | – | – | < 8 | < 8 | > 32 | > 32 | < 8 | ≥ 1 | < 0.5 | –
CC(C)(N)C(=O)N1CCN(C(=O)Nc2ccn(-c3ccc(CCN4CC5(CCC5N)C4)cc3)c(=O)n2)CC1 (stereo not shown) [Compound 107] | – | – | – | – | – | – | – | < 8 | < 8 | > 32 | > 32 | 8 to 32 | ≥ 1 | ≥ 1 | –
CCCC(Cc1ccc(-n2ccc(NC(=O)N3CCN(C(=O)C(C)(C)N)CC3)nc2=O)cc1F)N1C[C@@H]2[C@@H](CN)[C@@H]2C1 (stereo partly shown) [Compound 153] | – | – | – | – | – | – | – | < 8 | < 8 | 8 to 32 | < 8 | < 8 | ≥ 1 | < 0.5 | –
CCN(C(C)Cc1ccc(-n2ccc(NC(=O)N3CCN(C(=O)C(C)(C)N)CC3)nc2=O)cc1)C12CC(N)(C1)C2 (stereo not shown) [Compound 198] | 8 to 32 | 8 to 32 | > 32 | > 32 | > 32 | ≥ 1 | ≥ 1 | – | – | – | – | – | – | – | –
CC(Cc1ccc(-n2ccc(NC(=O)N3CCN(C(=O)C(C)(C)N)CC3)nc2=O)cc1)N(CC1CC1)C1CC2(CC(N)C2)C1 (stereo not shown) [Compound 194] | < 8 | < 8 | > 32 | 8 to 32 | < 8 | ≥ 1 | 0.5 to 1 | – | – | – | – | – | – | – | –
CCN(Cc1ccc(-n2ccc(NC(=O)N3CCN(C(=O)C(C)(C)N)CC3)nc2=O)cc1)C12CCC(N)(CC1)C2 [Compound 166] | < 8 | < 8 | > 32 | 8 to 32 | < 8 | ≥ 1 | < 0.5 | – | – | – | – | – | – | – | –
CC(C)(N)C(=O)N1CCN(C(=O)Nc2ccn(-c3ccc(C(N)C(=O)N4C[C@@H]5[C@@H](CN)[C@@H]5C4)cc3)c(=O)n2)CC1 (stereo partly shown) [Compound 137] | – | – | – | – | – | – | – | > 32 | > 32 | > 32 | > 32 | > 32 | ≥ 1 | 0.5 to 1 | –
CC(C)(N)C(=O)N1CCN(C(=O)Nc2ccn(-c3ccc(CCN4C5CCC4CC(N)C5)cc3)c(=O)n2)CC1 (stereo not shown) [Compound 108] | – | – | – | – | – | – | – | – | – | – | – | – | ≥ 1 | ≥ 1 | E. coli + bicarb MIC [1, 10]: +++ (An MIC value (μg/mL) that is less than 8 μg/mL); Sa + bicarb MIC [2, 10]: +++ (An MIC value (μg/mL) that is less than 8 μg/mL); Pa MIC + bicarb [3, 10]: + (An MIC (μg/mL) value that is 32 μg/mL or greater); Ab + bicarb MIC ([4]; A. baumannii, growth medium supplemented with sodium bicarbonate): + (An MIC (μg/mL) value that is 32 μg/mL or greater); Ef + bicarb MIC [5, 10]: + (An MIC (μg/mL) value that is 32 μg/mL or greater)
CC(Cc1ccc(-n2ccc(NC(=O)N3CCN(C(=O)C(C)(C)N)CC3)nc2=O)cc1)N1C[C@@H]2[C@H](C1)[C@H]2C(C)(C)N (stereo partly shown) [Compound 205] | 8 to 32 | 8 to 32 | > 32 | > 32 | > 32 | ≥ 1 | ≥ 1 | – | – | – | – | – | – | – | –
CC(C)(N)C(=O)N1CCN(C(=O)Nc2ccn(-c3cccc(CCN4CCC5(CC4)CC(N)C5)c3)c(=O)n2)CC1 [Compound 110] | – | – | – | – | – | – | – | < 8 | < 8 | > 32 | > 32 | 8 to 32 | ≥ 1 | 0.5 to 1 | –
NC1CC2(CCN(C(=O)Nc3ccn(-c4ccc(CN5C[C@@H]6[C@@H](N)[C@@H]6C5)cc4)c(=O)n3)CC2)C1 [Compound 49] | – | – | – | – | – | – | – | < 8 | < 8 | > 32 | > 32 | 8 to 32 | ≥ 1 | < 0.5 | –
CC(C)(N)C(=O)N1CCN(C(=O)Nc2ccn(-c3ccc(CCN4C[C@@H]5[C@H](C4)[C@H]5C(N)CO)cc3)c(=O)n2)CC1 (stereo partly shown) [Compound 210] | < 8 | < 8 | > 32 | > 32 | 8 to 32 | ≥ 1 | 0.5 to 1 | – | – | – | – | – | – | – | –
CC(Cc1ccc(-n2ccc(NC(=O)N3CCN(C(=O)[C@@](C)(N)CO)CC3)nc2=O)cc1)N1C[C@@H]2[C@@H](CN)[C@@H]2C1 (stereo partly shown) [Compound 125] | – | – | – | – | – | – | – | < 8 | < 8 | 8 to 32 | > 32 | < 8 | ≥ 1 | < 0.5 | –
CC(Cc1ccc(-n2ccc(NC(=O)N3CCN(C(=O)C(C)(C)N)CC3)nc2=O)cc1)N1CC2(CNC2)C1 (stereo not shown) [Compound 162] | – | – | – | – | – | – | – | 8 to 32 | 8 to 32 | > 32 | > 32 | > 32 | ≥ 1 | ≥ 1 | –
CCC(Cc1ccc(-n2ccc(NC(=O)N3CCN(C(=O)C(C)(C)N)CC3)nc2=O)cc1)N1CC2CCC(N)CC2C1 (stereo not shown) [Compound 218] | < 8 | < 8 | > 32 | > 32 | – | ≥ 1 | < 0.5 | – | – | – | – | – | – | – | Ef + bicarb MIC [5, 8]: +++ (An MIC value (μg/mL) that is less than 8 μg/mL)
CC(Cc1ccc(-n2ccc(NC(=O)N3CCN(C(=O)C(C)(C)N)CC3)nc2=O)cc1)N(C)C12CC(CN)(C1)C2 (stereo not shown) [Compound 200] | < 8 | < 8 | > 32 | > 32 | > 32 | ≥ 1 | ≥ 1 | – | – | – | – | – | – | – | –
CC(C)(N)C(=O)N1CCN(C(=O)Nc2ccn(-c3ccc(CCN4CCC5CC5(N)C4)c(C(F)(F)F)c3)c(=O)n2)CC1 (stereo not shown) [Compound 103] | – | – | – | – | – | – | – | 8 to 32 | 8 to 32 | > 32 | > 32 | 8 to 32 | ≥ 1 | 0.5 to 1 | –
CC(Cc1ccc(-n2ccc(NC(=O)N3CCN(C(=O)C(C)(C)N)CC3)nc2=O)cc1)N1CC2CCC(N)CC2C1 (stereo not shown) [Compound 242] | – | – | – | – | – | ≥ 1 | 0.5 to 1 | – | – | – | – | – | – | – | E. coli + bicarb MIC [1, 8]: +++ (An MIC value (μg/mL) that is less than 8 μg/mL); Sa + bicarb MIC [2, 8]: ++ (An MIC value (μg/mL) that is 8 μg/mL or greater and less than 32 μg/mL); Pa MIC + bicarb [3, 8]: + (An MIC (μg/mL) value that is 32 μg/mL or greater); Ab + bicarb MIC [4, 9]: + (An MIC (μg/mL) value that is 32 μg/mL or greater); Ef + bicarb MIC [5, 8]: + (An MIC (μg/mL) value that is 32 μg/mL or greater)
CC(Cc1ccc(-n2ccc(NC(=O)N3CCN(C(=O)C(C)(C)N)CC3)nc2=O)cc1)N1CC2CCC(N)C2C1 (stereo not shown) [Compound 214] | < 8 | < 8 | > 32 | > 32 | < 8 | ≥ 1 | < 0.5 | – | – | – | – | – | – | – | –
CC(C)CC(Cc1ccc(-n2ccc(NC(=O)N3CCN(C(=O)C(C)(C)N)CC3)nc2=O)cc1)N1C[C@@H]2[C@@H](CN)[C@@H]2C1 (stereo partly shown) [Compound 156] | – | – | – | – | – | – | – | < 8 | < 8 | < 8 | < 8 | < 8 | ≥ 1 | < 0.5 | –
CC(C)(N)C(=O)N1CCN(C(=O)Nc2ccn(-c3ccc(CCN4C[C@@H]5[C@@H](CN)[C@@H]5C4)cc3)c(=O)n2)CC1 [Compound 116] | – | – | – | – | – | – | – | < 8 | < 8 | 8 to 32 | < 8 | 8 to 32 | ≥ 1 | < 0.5 | –
CC(C)(N)C(=O)N1CCN(C(=O)Nc2ccn(-c3ccc(CCN4C5CCC4CC(N)C5)cc3)c(=O)n2)CC1 (stereo not shown) [Compound 106] | – | – | – | – | – | – | – | < 8 | < 8 | > 32 | > 32 | – | ≥ 1 | ≥ 1 | Ef + bicarb MIC [5, 10]: ++ (An MIC value (μg/mL) that is 8 μg/mL or greater and less than 32 μg/mL)
CC(Cc1ccc(-n2ccc(NC(=O)N3CCN(C(=O)C(C)(C)N)CC3)nc2=O)cc1)NC12CC(CN)(C1)C2 (stereo not shown) [Compound 203] | 8 to 32 | 8 to 32 | > 32 | > 32 | > 32 | ≥ 1 | ≥ 1 | – | – | – | – | – | – | – | –
CCCC(Cc1ccc(-n2ccc(NC(=O)N3CCN(C(=O)C(C)(C)N)CC3)nc2=O)cc1)N1C[C@@H]2[C@@H](CN)[C@@H]2C1 (stereo partly shown) [Compound 150] | – | – | – | – | – | – | – | < 8 | < 8 | < 8 | < 8 | < 8 | ≥ 1 | < 0.5 | –
